Earlier results on 15 molecules are cited in PubChem BioAssay AID1259410 (Chemical Carcinogenesis Research Information System (CCRIS), 2018).

The subject of this data set is rodent tumor promotion studies, tumor incidence. Kind of data set: CCRIS tumor promotion studies.

With `O=c1cc(-c2ccccc2)oc2ccc3ccccc3c12`, the outcome runs as follows: (Carcinogen: (+/-)-TRANS-7,8-DIHYDROBENZO[A]PYRENE-7,8-DIOL, 61443-57-0, Doses [Carcinogen]: 1 UG CO-ADMINISTERED WITH PROMOTER DOSE, Doses [Promoter]: 1 UG INJECTED INTO NEWLY HATCHED SAC-FRY CO-ADMINISTERED WITH CARCINOGEN DOSE (STUDY DURATION: 9 MO), Route [Carcinogen]: INJECTION, Route [Promoter]: INJECTION, Species: FISH, Strain/Sex: RAINBOW TROUT/MALE,FEMALE) “liver: tumor”; (Carcinogen: DIETHYLNITROSAMINE, 55-18-5, Doses [Carcinogen]: 200 MG/KG BW ONCE (STUDY DURATION: 28 WK), Doses [Promoter]: 1% IN DIET FOR 26 WK BEGINNING 2 WK POST LAST CARCINOGEN DOSE, 2/3 PARTIAL HEPATECTOMY PERFORMED AT WEEK 3 (STUDY DURATI, Route [Carcinogen]: INTRAPERITONEAL, Route [Promoter]: ORAL, Species: RAT, Strain/Sex: F344/MALE) “liver: tumor”; (Doses [Carcinogen]: 0.5 PPM AQUEOUS SOLUTION FOR 30 MIN EXPOSURE OF EMBRYOS 21 D AFTER FERTILIZATION, Doses [Promoter]: 0.05% IN DIET FOR 8 WK (STUDY DURATION: 1 YR), Route [Carcinogen]: IMMERSION, Route [Promoter]: ORAL, Species: FISH, Strain/Sex: MT. SHASTA RAINBOW TROUT) “liver: hepatocellular carcinoma or mixed carcinoma or hepatocellular adenoma”. Regarding `Cc1cc(O)c2c(c1)Cc1cccc(O)c1C2=O`, the outcome is given as “integumentary system (skin): papilloma” (Carcinogen: 7,12-DIMETHYLBENZ(A)ANTHRACENE, Doses [Carcinogen]: 10 NMOL ONCE, Doses [Promoter]: 50 UG 2/WK FOR 21 WK, Route [Carcinogen]: DERMAL, Route [Promoter]: DERMAL, Species: MOUSE, Strain/Sex: SENCAR/FEMALE) and “skin: papilloma” (Carcinogen: 7,12-DIMETHYLBENZ[A]ANTHRACENE, 57-97-6, Doses [Carcinogen]: 6.4 UG ONCE, Doses [Promoter]: 0, 52.8 UG 1/WK FOR 10 WK BEGINNING 2 WK POST CARCINOGEN DOSE (STUDY DURATION: 32 WK), Route [Carcinogen]: DERMAL, Route [Promoter]: DERMAL, Species: MOUSE, Strain/Sex: SENCAR/FEMALE). Take `Oc1c(Cl)c(Cl)c(O)c(Cl)c1Cl`: the outcome (Carcinogen: 7,12-Dimethylbenzanthracene, 57-97-6, Doses [Carcinogen]: 100 ug in 100 ul acetone once at 7 wks of age, Doses [Promoter]: 100, 500 ug in 100 ul acetone 1 wk after carcinogen, 2 times a wk for 20 or 30 wks, Route [Carcinogen]: Dermal, Route [Promoter]: Dermal, Species: Mouse, Strain/Sex: CD-1/Female) was “skin: tumors (dihydrolipoic acid significantly inhibited tumor incidence and mul”.

Turning to `[K+]`, the outcome is “thyroid gland: follicular cell carcinoma” (Carcinogen: N-BIS-(2-HYDROXYPROPYL)NITROSAMINE [53609-64-6], Doses [Carcinogen]: 2800 MG/KG BW ONCE (STUDY DURATION: 83 WK), Doses [Promoter]: 1000 PPM IN DRINKING WATER FOR 82 WK BEGINNING 1 WK POST LAST CARCINOGEN DOSE (STUDY DURATION: 83 WK), Route [Carcinogen]: SUBCUTANEOUS, Route [Promoter]: ORAL, Species: RAT, Strain/Sex: F344/MALE); “kidney: renal cell tumors (no promoting effect observed)” (Carcinogen: N-Ethyl-N-hydroxyethylnitrosamine, 13147-25-6, Doses [Carcinogen]: 500 ppm in drinking water for 2 wk, Doses [Promoter]: 0, 350, 1750 ppm in drinking water beginning post carcinogen treatment and continuing for 24 wk (study duration: 26 wk), Doses [Promoter]: 0, 350, 1750 ppm in drinking water beginning post carcinogen treatment and continuing for 24 wk (study duration: 26 wk), Route [Carcinogen]: Oral, Route [Promoter]: Oral, Species: Rat, Strain/Sex: F344/Male (15/group)). As to `C[C@H](CCC(=O)O)[C@H]1CC[C@H]2[C@@H]3[C@H](O)C[C@@H]4C[C@H](O)CC[C@]4(C)[C@H]3C[C@H](O)[C@]12C`, the outcome is, setting by setting: (Carcinogen: AZOXYMETHANE, 25843-45-2, Doses [Carcinogen]: 15 MG/KG BW 1/WK FOR 2 WK, Doses [Promoter]: 0, 0.4% IN THE DIET FOR 28 WK BEGINNING 2 WK PRIOR TO CARCINOGEN TREATMENT (STUDY DURATION: 30 WK), Route [Carcinogen]: SUBCUTANEOUS, Route [Promoter]: ORAL, Species: RAT, Strain/Sex: F344/MALE) “colon: tumor”; (Doses [Carcinogen]: IR, Route [Carcinogen]: RECTAL, Route [Promoter]: RECTAL, Species: RAT, Strain/Sex: FEMALE) “colon”. For the molecule `C=CC(C)(C)c1ccc2c3c(c[nH]c13)C[C@@H](CO)NC(=O)[C@H](C(C)C)N2C`, where the note is “Carcinogen: DIMETHYLBENZ[A]ANTHRACENE, 57-97-6, Doses [Carcinogen]: 100 UG IN 100 µL ACETONE APPLIED TO THE BACK ONCE, Doses [Promoter]: 5 UG IN 100 ML ACETONE APPLIED TO THE BACK 2/WK FOR 15 WK BEGINNING 1 WK POST CARCINOGEN DOSE THEN 10 UG 2/WK FOR 15 WK, Route [Carcinogen]: DERMAL, Route [Promoter]: DERMAL, Species: MOUSE, Strain/Sex: CD-1/FEMALE”, the outcome is given as “skin: papilloma”. With `CC(C)CCC[C@@H](C)[C@H]1CC[C@H]2[C@@H]3CC=C4C[C@@H](O)CC[C@]4(C)[C@H]3CC[C@]12C`, the outcome (Carcinogen: N-NITROSOBIS(2-OXOPROPYL)AMINE, 60599-38-4, Doses [Carcinogen]: 70 MG/KG ONCE, Doses [Promoter]: 0, 0.5% IN DIET BEGINNING 2 WK POST CARCINOGEN DOSE AND CONTINUING FOR 16 WK (STUDY DURATION: 18 WK), Route [Carcinogen]: SUBCUTANEOUS, Route [Promoter]: ORAL, Species: HAMSTER, Strain/Sex: SYRIAN/FEMALE) is reported as “pancreas: adenocarcinoma”.

With `COc1c(N2C[C@@H]3CCCN[C@@H]3C2)c(F)cc2c(=O)c(C(=O)O)cn(C3CC3)c12`, the outcome (Carcinogen: N-METHYL-N-NITROSOUREA, 684-93-5, Doses [Carcinogen]: 4.5 MG/KG BW 1/WK FOR FIRST 10 WK, Doses [Promoter]: 0, 500 MG/KG BW/D FOR 24 WK BEGINNING 14 WK POST CARCINOGEN FIRST DOSE (STUDY DURATION: 38 WK), Route [Carcinogen]: GAVAGE, Route [Promoter]: GAVAGE, Species: RAT, Strain/Sex: WISTAR/MALE, FEMALE) was “forestomach: squamous cell papilloma, glandular stomach adenocarcinoma”. Consider `CC(=O)Oc1ccccc1C(=O)O`, for which the outcome is, setting by setting: (Carcinogen: N-(4-(5-NITRO-2-FURYL)-2-THIAZOLYL)FORMAMIDE, 24554-26-5, Doses [Carcinogen]: 0.2% IN DIET FOR 12 WK (TOTAL DOSE: 2.7 G), Doses [Promoter]: 0.5% IN DIET (TOTAL DOSE: 45.9 G) BEGINNING 2 D PRIOR TO SIMULTANEOUS ADMINISTRATION WITH CARCINOGEN FOR 12 WK THEN CONT, Route [Carcinogen]: ORAL, Route [Promoter]: ORAL, Species: RAT, Strain/Sex: F344/MALE) “urinary bladder: transitional cell carcinoma”; (Carcinogen: N-(4-(5-NITRO-2-FURYL)-2-THIAZOLYL)FORMAMIDE, 24554-26-5, Doses [Carcinogen]: 0.2% IN DIET FOR 12 WK (TOTAL DOSE: 3 G), Doses [Promoter]: 0.5% IN DIET (TOTAL DOSE: 39.9 G) BEGINNING 7 D POST LAST CARCINOGEN DOSE AND CONTINUING FOR DURATION OF STUDY (STUDY DU, Route [Carcinogen]: ORAL, Route [Promoter]: ORAL, Species: RAT, Strain/Sex: F344/MALE) “urinary bladder: transitional cell carcinoma”.

As to `Oc1ccccc1`, the outcome (Carcinogen: 7,12-DIMETHYLBENZ(A)ANTHRACENE, Doses [Carcinogen]: 75 UG, SINGLE DOSE, Doses [Promoter]: 0, 2.5 MG 2/WK FOR 42 WK, Route [Carcinogen]: DERMAL, Route [Promoter]: DERMAL, Species: MOUSE, Strain/Sex: FEMALE) is given as “integumentary system (skin): carcinoma”. Turning to `Cc1cc(=O)[nH]c(=S)[nH]1`, the outcome (Carcinogen: 2-(ACETYLAMINO)FLUORINE, Doses [Carcinogen]: IG, Doses [Promoter]: IN DIET, Route [Carcinogen]: GAVAGE, Route [Promoter]: ORAL, Species: RAT, Strain/Sex: MALE,FEMALE) is given as “thyroid gland”. With `CC(O)(CS(=O)(=O)c1ccc(F)cc1)C(=O)Nc1ccc(C#N)c(C(F)(F)F)c1` (stereo not drawn), under “Carcinogen: 3,2'-DIMETHYL-4-AMINOBIPHENYL, 13394-86-0, Doses [Carcinogen]: 50 MG/KG BW ONCE/2 WK FOR FIRST 20 WK, Doses [Promoter]: 0, 10, 30 MG/KG BW BY GAVAGE 3X/WK FOR 40 WK BEGINNING 20 WK POST CARCINOGEN TREATMENT (STUDY DURATION: 60 WK), Doses [Promoter]: 0, 10, 30 MG/KG BW BY GAVAGE 3X/WK FOR 40 WK BEGINNING 20 WK POST CARCINOGEN TREATMENT (STUDY DURATION: 60 WK), Route [Carcinogen]: SUBCUTANEOUS, Route [Promoter]: ORAL, Species: RAT, Strain/Sex: F344/MALE”, the outcome is on record as “prostate (ventral): adenocarcinoma”. With `CCCCCCCCCCCCCC`, the outcome runs as follows: (Carcinogen: 7,12-DIMETHYLBENZ(A)ANTHRACENE, Doses [Carcinogen]: TOP, Route [Carcinogen]: DERMAL, Route [Promoter]: DERMAL, Species: MOUSE, Strain/Sex: FEMALE) “integumentary system (skin)”; (Carcinogen: BENZO(A)PYRENE, Doses [Carcinogen]: TOP, Route [Carcinogen]: DERMAL, Route [Promoter]: DERMAL, Species: MOUSE, Strain/Sex: FEMALE) “integumentary system (skin)”. Turning to `CCCCCCC(=O)C/C=C/CCCCCCCC(=O)OC`, the outcome is, setting by setting: (Carcinogen: 4-NITROQUINOLINE-1-OXIDE, Doses [Carcinogen]: IG, Doses [Promoter]: IN DIET, Route [Carcinogen]: GAVAGE, Route [Promoter]: ORAL, Species: MOUSE, Strain/Sex: MALE,FEMALE) “forestomach”; (Carcinogen: 7,12-DIMETHYLBENZ(A)ANTHRACENE, Doses [Carcinogen]: TOP, Route [Carcinogen]: DERMAL, Route [Promoter]: DERMAL, Species: MOUSE, Strain/Sex: MALE,FEMALE) “integumentary system (skin)”. In the case of `Cn1c(=O)c2c(ncn2C)n(C)c1=O`, the outcome (Carcinogen: N-NITROSOBIS(2-OXOPROPYL)AMINE, 60599-38-4, Doses [Carcinogen]: 10 MG/KG 1/WK FOR 3 WK, Doses [Promoter]: 0, 2000 PPM IN DRINKING WATER BEGINNING POST CARCINOGEN TREATMENT AND CONTINUING FOR 37 WK (STUDY DURATION: 40 WK), Route [Carcinogen]: SUBCUTANEOUS, Route [Promoter]: ORAL, Species: HAMSTER, Strain/Sex: HAMSTER/FEMALE) is given as “pancreas: adenocarcinoma”.
